This is an account of results in patent publication US10555986B2, “Dietary supplement derived from natural prodcuts by hot melt extrusion (HME) processing” (INSTITUTO DE CAPACITACIÓN E INVESTIGACIÓN DEL PLÁS, priority 2017, dated 2020).

The conditions of data set [1]: relative to mannitol; background statement; cited from earlier work.
Data set [2] in a line: release profile of (−)-Epicatechin in artificial saliva at pH 6.2 and 23° C. It is filed as physicochemical. To be noted: artificial saliva pH 6.2, 23° C. As to the method: FIG. 20 describes the release profile of (−)-Epicatechin in artificial saliva at pH 6.2 and 23° C. for examples X to XIII with a particle size distribution between 250 μm and 425 μm (Mesh 40).
FIG. 21 illustrates the release profile of (−)-Epicatechin in artificial saliva at pH 6.2 and 23° C. for EXAMPLE X to XIII with a particle size distribution between 180 μm and 250 μm (Mesh 60).

For data set [3] the following is noted: after permanent coronary occlusion; background statement; cited from earlier work.
Data set [4] can be described thus: release profile of (−)-Epicatechin, 2 hour in medium pH 1.2 and 2 more hours in medium pH 6.8, at 37° C. It counts as physicochemical. The method, then: Releases for EXAMPLES I TO V.
FIG. 22 features release profile of (−)-Epicatechin at 2 hour in a medium with pH of 1.2 and 2 more hours in a medium with pH of 6.8, at 37° C. Releases for examples X to XIII with a particle size distribution between 250 μm and 425 μm (Mesh 40); and particle size distribution between 180 μm and 250 μm (Mesh 60).

For data set [5] the following is noted: background statement; cited from earlier work.

`Oc1cc(O)c2c(c1)O[C@H](c1ccc(O)c(O)c1)[C@H](O)C2` [EPICATECHIN AT 90%, (−)-Epicatechin (2R,3R)]: the “quenches OH more effectively than mannitol” value in data set [1] is given as 100 times. Further, the “% release” value in data set [2] (30 s) is 75.30%; in data set [2] (60 s), 88.70%; in data set [2] (120 s), 93.43%; in data set [4] (1 h, medium pH 1.2, 37° C.), 98.59%; in data set [4] (2 h, medium pH 1.2, 37° C.), 99.94%; in data set [4] (3 h, 2 h pH 1.2 then medium pH 6.8, 37° C.), 100.22%. The “% release” value in data set [4] (4 h, 2 h pH 1.2 then medium pH 6.8, 37° C.) stood at 100.84%. Besides, the release profile percentages worked out at 75.30% in data set [2] (30 s, Table 13); 75.30% in data set [2] (30 s, Table 14); 88.70% in data set [2] (60 s, Table 13); 88.70% in data set [2] (60 s, Table 14); 93.43% in data set [2] (120 s, Table 13); 93.43% in data set [2] (120 s, Table 14). In addition, the release profile percentages in data set [4] (1 h, medium pH 1.2, 37° C., Table 13) was found to be 98.59%; in data set [4] (1 h, medium pH 1.2, 37° C., Table 14), 98.59%; in data set [4] (2 h, medium pH 1.2, 37° C., Table 13), 99.94%; in data set [4] (2 h, medium pH 1.2, 37° C., Table 14), 99.94%; in data set [4] (3 h, 2 h pH 1.2 then pH 6.8, 37° C., Table 13), 100.22%; in data set [4] (3 h, 2 h pH 1.2 then pH 6.8, 37° C., Table 14) it was 100.22%. For the same compound, the release profile percentages came to 100.84% in data set [4] (4 h, 2 h pH 1.2 then pH 6.8, 37° C., Table 13) and 100.84% in data set [4] (4 h, 2 h pH 1.2 then pH 6.8, 37° C., Table 14). Further, in data set [3], the “reduction in scar (infarct) size” value was “approximately 33%”. Further, the oral bioavailability entry in data set [5] is given as “less than 5%”.
